Reference: patent US7888343B2, “Substituted, bicyclic 8-pyrrolidinoxanthines, and methods for their use as inhibitors of dipeptidyl peptidase” (Sanofi-A Ventis Deutschland GmbH, priority 2004, dated 2011)
Counter-ions that a name gives are not always drawn.

What was measured:
[1] = target: T1, DPP-IV from porcine kidney (Sus scrofa, UniProt P22411); experiment: Measurement of the DPP-IV activity (fluorimetric H-Ala-Pro-AFC conversion); assay type: biochemical; conditions: DPP-IV 1 mU/ml, H-Ala-Pro-AFC 15 μM, Tris/HCl 40 mM pH 7.4, room temperature
T1 construct: DPP-IV from porcine kidney (Sigma, Munich); purchased Sigma, Munich; host or cells: porcine kidney (tissue-derived enzyme)
Experimental: The reaction was carried out at room temperature for various times (typically 10 min) and stopped at the end of the reaction by adding 20 μl of ZnCl2(1 M). […] When inhibitors were added, the added buffer volume was adapted so that a total volume of 200 μl was maintained for the assay mixture.

T1 sequence (P22411 whole entry): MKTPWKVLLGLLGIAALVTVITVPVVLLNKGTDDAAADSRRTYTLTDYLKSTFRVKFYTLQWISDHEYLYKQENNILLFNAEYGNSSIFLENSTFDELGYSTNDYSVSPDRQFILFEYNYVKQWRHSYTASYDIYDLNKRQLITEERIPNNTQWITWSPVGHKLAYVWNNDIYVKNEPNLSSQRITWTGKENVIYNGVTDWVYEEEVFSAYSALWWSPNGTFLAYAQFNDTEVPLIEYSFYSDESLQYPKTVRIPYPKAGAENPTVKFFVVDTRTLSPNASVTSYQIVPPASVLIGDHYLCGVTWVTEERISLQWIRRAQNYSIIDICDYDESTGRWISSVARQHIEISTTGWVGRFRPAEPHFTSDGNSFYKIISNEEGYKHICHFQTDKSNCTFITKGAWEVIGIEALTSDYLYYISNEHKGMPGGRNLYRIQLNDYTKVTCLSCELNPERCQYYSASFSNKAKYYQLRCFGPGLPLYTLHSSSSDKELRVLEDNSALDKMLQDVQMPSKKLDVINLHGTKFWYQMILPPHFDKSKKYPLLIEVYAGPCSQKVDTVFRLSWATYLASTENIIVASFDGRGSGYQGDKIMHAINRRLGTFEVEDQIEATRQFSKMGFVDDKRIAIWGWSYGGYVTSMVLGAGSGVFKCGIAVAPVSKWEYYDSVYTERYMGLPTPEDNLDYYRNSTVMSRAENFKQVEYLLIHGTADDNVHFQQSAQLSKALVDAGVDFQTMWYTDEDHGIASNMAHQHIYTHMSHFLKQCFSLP

Row | SMILES | melting point | IC50 [1]
1 | CC(C)=CCn1c(N2CC[C@@H]3CN(C)C[C@@H]32)nc2c1c(=O)n(CC(=O)c1ccccc1)c(=O)n2C (relative stereo) [Example 2, 3-Methyl-7-(3-methylbut-2-enyl)-8-(cis-5-methylhexahydropyrrolo[3,4-b]pyrrole-1-yl)-1-(2-oxo-2-phenylethyl)-3,7-dihydropurine-2,6-dione] | 73.5 °C | 
2 | CC(C)=CCn1c(N2CCC3CNCC32)nc2c1c(=O)n(Cc1nc3cc(F)ccc3s1)c(=O)n2C (stereo not shown) [Example 16, 1-(5-Fluorobenzothiazol-2-ylmethyl)-8-(hexahydropyrrolo[3,4-b]pyrrol 1-yl)-3-methyl-7-(3-methylbut-2-enyl)-3,7-dihydropurine-2,6-dione hydrochloride] |  | 0.019 µM
3 | CC(C)=CCn1c(N2CCC3CNCC32)nc2c1c(=O)n(CCc1ccccc1)c(=O)n2C1CC1 (stereo not shown) [Example 21, 3-Cyclopropyl-8-(hexahydropyrrolo[3,4-b]pyrrol-1-yl)-7-(3-methylbut-2-enyl)-1-phenethyl-3,7-dihydropurine-2,6-dione hydrochloride] |  | 0.071 µM
4 | CC(C)=CCn1c(N2CCC3CNCC32)nc2c1c(=O)n(CC(=O)c1ccccc1)c(=O)n2CC(F)(F)F (stereo not shown) [Example 35, 8-(Hexahydropyrrolo[3,4-b]pyrrol-1-yl)-7-(3-methylbut-2-enyl)-1-(2-oxo-2-phenylethyl)-3-(2,2,2-trifluoroethyl)-3,7-dihydropurine-2,6-dione hydrochloride] |  | 0.05 µM
5 | Cn1c(=O)c2c(nc(N3CCC4CNCC43)n2Cc2ccccc2Cl)n(C)c1=O (stereo not shown) [Example 97, 7-(2-Chlorobenzyl)-8-(hexahydropyrrolo[3,4-b]pyrrol-1-yl)-1,3-dimethyl-3,7-dihydropurine-2,6-dione trifluoroacetate] |  | 0.02 µM

Continued by falling IC50 [1], values first:

Row | melting point | IC50 [1] | SMILES
6 |  | 0.012 µM | CC(C)=CCn1c(N2CCC3CNCC32)nc2c1c(=O)n(CC(O)c1ccccc1)c(=O)n2C (stereo not shown) [Example 14, 8-(Hexahydropyrrolo[3,4-b]pyrrol-1-yl)-1-(2-hydroxy-2-phenylethyl)-3-methyl-7-(3-methyl-but-2-enyl)-3,7-dihydropurine-2,6-dione hydrochloride]
7 |  | 0.0105 µM | CC(C)=CCn1c(N2CCC3CNCC32)nc2c1c(=O)n(CC(=O)c1ccccc1Cl)c(=O)n2C (stereo not shown) [Example 41, 1-[2-(2-Chlorophenyl)-2-oxo-ethyl]-8-(hexahydropyrrolo[3,4-b]pyrrol-1-yl)-3-methyl-7-(3-methylbut-2-enyl)-3,7-dihydropurine-2,6-dione trifluoroacetate]
8 |  | 0.01 µM | CC(C)=CCn1c(N2CCC3CNCC32)nc2c1c(=O)n(CC(=O)c1cccc(Cl)c1)c(=O)n2C (stereo not shown) [Example 42, 1-[2-(3-Chlorophenyl)-2-oxo-ethyl]-8-(hexahydropyrrolo[3,4-b]pyrrol-1-yl)-3-methyl-7-(3-methylbut-2-enyl)-3,7-dihydropurine-2,6-dione]
9 |  | 0.0072 µM | Cn1c(=O)n(CC(=O)c2ccccc2)c(=O)c2c1nc(N1CCC3CNCC31)n2Cc1ccccc1 (stereo not shown) [Example 5, 7-Benzyl-8-(hexahydropyrrolo[3,4-b]pyrrol-1-yl)-3-methyl-1-(2-oxo-2-phenylethyl)-3,7-dihydropurine-2,6-dione hydrochloride]
10 |  | 0.005 µM | CCn1c(=O)n(CC(=O)c2ccccc2)c(=O)c2c1nc(N1CCC3CNCC31)n2CC=C(C)C (stereo not shown) [Example 15, 3-Ethyl-8-(hexahydropyrrolo[3,4-b]pyrrol-1-yl)-7-(3-methylbut-2-enyl)-1-(2-oxo-2-phenyl-ethyl)-3,7-dihydropurine-2,6-dione hydrochloride]
